Assays:
[1] = The drug is tested on Bacteroides ovatus strain: ATCC8483 for biotransformation. The drug concentrations were measured before and after a 12-h incubation by liquid-chromatography-coupled mass spectrometry (LC–MS); details: 2 µM
[2] = The drug is tested on Bifidobacterium longum subsp. Infantis strain: CCUG52486 for biotransformation. The drug concentrations were measured before and after a 12-h incubation by liquid-chromatography-coupled mass spectrometry (LC–MS); details: 2 µM
[3] = parabacteroides distasonis, 12 h, 2 µM
Description: The drug is tested on Parabacteroides distasonis strain: ATCC8503 for biotransformation. The drug concentrations were measured before and after a 12-h incubation by liquid-chromatography-coupled mass spectrometry (LC–MS)

[4] = The drug is tested on Bacteroides pectinophilus strain: ATCC43243 for biotransformation. The drug concentrations were measured before and after a 12-h incubation by liquid-chromatography-coupled mass spectrometry (LC–MS); details: 2 µM
[5] = bacteroides intestinalis, 12 h, 2 µM
Description: The drug is tested on Bacteroides intestinalis strain: DSM17393 for biotransformation. The drug concentrations were measured before and after a 12-h incubation by liquid-chromatography-coupled mass spectrometry (LC–MS)

[6] = The drug is tested on Collinsella aerofaciens strain: ATCC25986 for biotransformation. The drug concentrations were measured before and after a 12-h incubation by liquid-chromatography-coupled mass spectrometry (LC–MS); details: 2 µM
[7] = The drug is tested on Ruminococcus gnavus strain: ATCC29149 for biotransformation. The drug concentrations were measured before and after a 12-h incubation by liquid-chromatography-coupled mass spectrometry (LC–MS); details: mediterraneibacter gnavus, 2 µM

| Structure (SMILES) | Bacterial Biotransformation [1] | Bacterial Biotransformation [2] | Bacterial Biotransformation [3] | Bacterial Biotransformation [4] | Bacterial Biotransformation [5] | Bacterial Biotransformation [6] | Bacterial Biotransformation [7] |
| --- | --- | --- | --- | --- | --- | --- | --- |
| CCN(CC)CCOCCOC(=O)C1(c2ccccc2)CCCC1.O=C(O)CC(O)(CC(=O)O)C(=O)O [CARBETAPENTANE CITRATE] | Compound metabolized | Compound metabolized | Compound metabolized | Compound metabolized | Compound metabolized | Compound metabolized | Compound metabolized |
| CN(C)CCOC(c1ccc(Cl)cc1)c1ccccn1.O=C(O)/C=C\C(=O)O (centres undefined) [CARBINOXAMINE MALEATE] | Compound NOT metabolized | Compound NOT metabolized | Compound NOT metabolized | Compound NOT metabolized | Compound NOT metabolized | Compound NOT metabolized | Compound NOT metabolized |
| CN1C[C@H](C(=O)N[C@]2(C)O[C@@]3(O)[C@@H]4CCCN4C(=O)[C@H](Cc4ccccc4)N3C2=O)C=C2c3cccc4[nH]cc(c34)C[C@H]21.CN1C[C@H](C(=O)N[C@]2(C)O[C@@]3(O)[C@@H]4CCCN4C(=O)[C@H](Cc4ccccc4)N3C2=O)C=C2c3cccc4[nH]cc(c34)C[C@H]21.O=C(O)C(O)C(O)C(=O)O [ERGOTAMINE TARTRATE] | Compound metabolized | Compound metabolized | Compound metabolized | Compound metabolized | Compound metabolized | Compound metabolized | Compound metabolized |
| COc1ccc2c(c1OC)C(=O)O[C@@H]2[C@H]1c2c(cc3c(c2OC)OCO3)CCN1C [NOSCAPINE] | Compound metabolized | Compound metabolized | Compound metabolized | Compound metabolized | Compound metabolized | Compound metabolized | Compound NOT metabolized |
| CC(C)(Oc1ccc(CCNC(=O)c2ccc(Cl)cc2)cc1)C(=O)O [BEZAFIBRATE] | Compound metabolized | Compound metabolized | Compound metabolized | Compound metabolized | Compound metabolized | Compound metabolized | Compound NOT metabolized |
| CSc1ccc2c(c1)C(N1CCN(C)CC1)Cc1ccccc1S2.O=C(O)/C=C\C(=O)O (centres undefined) | Compound NOT metabolized | Compound NOT metabolized | Compound metabolized | Compound NOT metabolized | Compound NOT metabolized | Compound NOT metabolized | Compound NOT metabolized |
| CCOc1ccc2nc(S(N)(=O)=O)sc2c1 [ETHOXZOLAMIDE] | Compound metabolized | Compound metabolized | Compound metabolized | Compound metabolized | Compound metabolized | Compound metabolized | Compound metabolized |
| CC(Oc1c(Cl)cccc1Cl)C1=NCCN1 (centres undefined) [LOFEXIDINE] | Compound NOT metabolized | Compound metabolized | Compound NOT metabolized | Compound metabolized | Compound metabolized | Compound metabolized | Compound metabolized |
| CNC(=C[N+](=O)[O-])NCCSCc1csc(CN(C)C)n1 [NIZATIDINE] | Compound NOT metabolized | Compound metabolized | Compound metabolized | Compound metabolized | Compound metabolized | Compound metabolized | Compound metabolized |
| CCCc1nc(C(C)(C)O)c(C(=O)OCc2oc(=O)oc2C)n1Cc1ccc(-c2ccccc2-c2nnn[nH]2)cc1 [OLMESARTAN MEDOXOMIL] | Compound metabolized | Compound metabolized | Compound metabolized | Compound metabolized | Compound metabolized | Compound metabolized | Compound NOT metabolized |
| COc1ccccc1OCCNCC(O)COc1cccc2[nH]c3ccccc3c12 (centres undefined) [CARVEDILOL] | Compound metabolized | Compound NOT metabolized | Compound metabolized | Compound NOT metabolized | Compound metabolized | Compound metabolized | Compound NOT metabolized |
| Clc1ccc(Cn2c(CN3CCCC3)nc3ccccc32)cc1 [CLEMIZOLE] | Compound NOT metabolized | Compound NOT metabolized | Compound NOT metabolized | Compound NOT metabolized | Compound NOT metabolized | Compound NOT metabolized | Compound NOT metabolized |
| CCN1CCCC1CNC(=O)c1cc(S(=O)(=O)CC)c(N)cc1OC (centres undefined) [AMISULPRIDE] | Compound NOT metabolized | Compound NOT metabolized | Compound NOT metabolized | Compound NOT metabolized | Compound NOT metabolized | Compound NOT metabolized | Compound NOT metabolized |
| CC(C)(C)NCC(O)c1cc(Cl)c(N)c(Cl)c1 (centres undefined) [CLENBUTEROL] | Compound NOT metabolized | Compound NOT metabolized | Compound NOT metabolized | Compound NOT metabolized | Compound NOT metabolized | Compound NOT metabolized | Compound NOT metabolized |
| Cc1nc2n(c(=O)c1CCN1CCC(c3noc4cc(F)ccc34)CC1)CCCC2O (centres undefined) [PALIPERIDONE] | Compound metabolized | Compound metabolized | Compound metabolized | Compound NOT metabolized | Compound metabolized | Compound metabolized | Compound metabolized |
| CCOc1cc(CC(=O)N[C@@H](CC(C)C)c2ccccc2N2CCCCC2)ccc1C(=O)O [REPAGLINIDE] | Compound NOT metabolized | Compound NOT metabolized | Compound metabolized | Compound NOT metabolized | Compound metabolized | Compound metabolized | Compound NOT metabolized |
| COc1c(C)c2c(c(O)c1C/C=C(\C)CCC(=O)OCCN1CCOCC1)C(=O)OC2 [MYCOPHENOLATE MOFETIL] | Compound metabolized | Compound metabolized | Compound metabolized | Compound metabolized | Compound metabolized | Compound metabolized | Compound metabolized |

Reference: ChEMBL document CHEMBL5303573, “Mapping human microbiome drug metabolism by gut bacteria and their genes” (Nature, 2019)
